Like-named read-outs stand apart in the source and are kept apart here. Each block holds one compound with its values, some of them ahead of it.
Columns and labels:
[1] = cited from earlier work
[2] = Activity after heating during the casting process; format: physicochemical; details: heated at up to 180° C. during the casting process
[3] = Study II: multiple doses kinetics; format: in vivo, human; details: 25 mg lozenge four times a day, 72 hours
Experimental: (§1) These are prospective, descriptive studies. The subjects were ten healthy young males. Samples of full blood were taken in lithium-heparin pipes for anticoagulant effect. After the blood sample is collected it is centrifuged at 2500 rounds per minute for 15 minutes at 4° C. Approximately 1 ml plasma is taken from the sample and put into vials and right away put into a −80° C. freezer, where it is kept until analysis.
The multiple doses study was conducted over 72 hours consecutively, where the subjects were administrated a lozenge containing 25 mg of bupivacaine four times a day in the awake hours.
The aim of the study was to measure the concentration of bupivacaine in the blood after absorption from an intact oral mucosa after administration of a lozenge containing 25 mg of bupivacaine given four times a day. […] Therefore the lozenges were administered at 8 am, […], 6 pm and 10 pm, to give a total daily dose of 100 mg bupivacaine.
The subjects drank 250 ml water to remove any traces of coffee, cola or other potential absorption enhancers. After 10 minutes a compressed lozenge was administered.

[4] = Study I: single dose kinetics of compressed bupivacaine lozenge; format: in vivo, human
Experimental: Bupivacaine has not been used as local oral administration before.
The purpose of this study is to investigate the pharmacokinetics of bupivacaine after topical oral administration. The plasma concentration of bupivacaine is measured after absorption over an intact oral mucosa after administration of a compressed lozenge containing respectively 5, 10, 25 and 50 mg bupivacaine as a single dose and 25 mg as multiple doses.
as §1
The aim of the study was to investigate the pharmacokinetics of bupivacaine by topical oral administration. The concentration of bupivacaine was measured in the blood after absorption from an intact oral mucosa after administration of a compressed lozenge containing respectively 5, 10 or 25 mg of bupivacaine. On study days 1, 2, 3 and 4 (interspersed with single wash-out days) the subjects were given one 5 mg lozenge, one 10 mg lozenge, one 25 mg lozenge or two 25 mg lozenges, respectively.
Before the study began, the subjects drank 250 ml water to remove any traces of coffee, cola or other potential absorption enhancers. After 10 minutes a compressed lozenge was administered. […] A baseline blood sample was taken, the lozenge was administered and then blood samples were taken at 0 min (i.e. when the lozenge has completely dissolved in the mouth, 15 min, 30 min, 45 min, 60 min, 75 min, 90 min, 105 min, 120 min, 150 min, 180 min, 210 min, 240 min, 270 min, 300 min, 330 min and 360 min.

[5] = plasma concentration; cited from earlier work
[6] = Study VII: single dose kinetics, fasting; format: in vivo, human; details: 25 mg compressed lozenge, fasting vs not fasting
Experimental: The single dose kinetics was conducted over 10 hours. The subjects had been fasting from 12 pm the night before the study began. The subjects were administrated a compressed lozenge containing 25 mg of bupivacaine. The blood collection began at approximately 7 am.
In our previous results we have seen an extra peak. The aim of this study was to investigate if the extra peak was from gastrointestinal absorption.
Baseline blood sample. Administration of lozenge. Blood sample at the following times: 0 min, 15 min, 30 min, 45 min, 60 min, 75 min, 90 min, 105 min, 120 min, 150 min, 180 min, 210 min, 240 min, 300 min, 360 min, 420 min, 480 min, 540 min and 600 min. (Time 0 minutes is when the lozenge is completely dissolved in the mouth.)

[7] = Pilot study Aarhus: kinetics, non-intact mucosa; format: in vivo, human; details: 25 mg lozenge, three head or neck cancer patients, stage 3 mucositis, non-intact oral mucosa
Experimental: The study was conducted over 2-3 hours on three patients from Aarhus University hospital. The patients were suffering from head or neck cancer with stage 3 mucositis with a non-intact oral mucosa. The aim of the study was to investigate the pharmacokinetics of bupivacaine by topical oral administration of a 25 mg lozenge. A baseline blood sample was taken, followed by administration of the lozenge, and then blood samples were taken at 0 min (i.e. when the lozenge is completely dissolved in the mouth), 15 min, 30 min, 45 min, 60 min, 75 min, 90 min, 105 min, 120 min, 150 min and 180 min.

[8] = safety pharmacology, single and repeated dose toxicity, reproduction toxicity, mutagenic potential, local toxicity; cited from earlier work
[9] = standard aqueous medium, pH7.4, 25° C.

Compound: levobupivacaine
- octanol/water partition coefficient ([1]; pH 7.4): 346

- activity after heating [2]: retains full activity
- accumulation in the body [3]: not being accumulated in the body
- discomfort ([4]; 5 mg and 10 mg compressed lozenge): none of them felt any discomfort
- discomfort, especially in the pharynx ([4]; 25 mg compressed lozenge): some of the subjects felt discomfort
- discomfort ([4]; 50 mg (two 25 mg lozenges)): discomfort was further increased
- maximum bupivacaine plasma concentration ([4]; maximum dosage 50 mg (two 25 mg compressed lozenges), single dose, intact oral mucosa, healthy subjects): less than 600 ng/ml
- influence of fasting on plasma level [6]: did not influence the results
- maximum plasma concentration of bupivacaine [7]: below 700 ng/ml
Compound: CCCCN1CCCCC1C(=O)Nc1c(C)cccc1C (stereo not drawn) [bupivacaine, 1-butyl-N-(2,6-dimethylphenyl)piperidine-2-carboxamide]
- peak plasma concentrations [3]: lower than the toxic level
- anesthetic effect felt ([4]; 5 mg and 10 mg compressed lozenge, healthy subjects): felt the anesthetic effect
- side effects ([4]; 5, 10, 25 and 50 mg single doses): None of the subjects experienced any side effects
- toxic level in man [5]: 2 to 4 µg/mL
- risks for humans from preclinical safety data [8]: no special risks for humans
- octanol/water partition coefficient [1, 9]: 346

Compound: CCCN1CCCC[C@H]1C(=O)Nc1c(C)cccc1C [ropivacaine]
- octanol/water partition coefficient [1, 9]: 115

Compound: CCOC(=O)c1ccc(N)cc1 [benzocaine]
- octanol/water partition coefficient [1, 9]: 81

Compound: CCCN(CC)C(CC)C(=O)Nc1c(C)cccc1C (stereo not drawn) [etidocaine]
- octanol/water partition coefficient [1, 9]: 800

From patent US9956211B2, “Pharmaceutical compositions comprising a local anaesthetic such as bupivacaine for local administration to the mouth or throat” (MOBERG PHARMA AB, priority 2011, dated 2018)
